From patent publication US20230279024A1, “TRIAZINE COMPOUND AND COMPOSITION AND USE THEREOF” (BEIJING FINDCURE BIOSCIENCES, LTD., priority 2020, published 2023) come the findings set out here.

A word on the IC50: it is the concentration at which inhibition is half-maximal.

For one experiment, the target named is AXL (h) kinase (Homo sapiens (Human), UniProt P30530). As to the kind of experiment: AXL (h) kinase activity test (EZ Reader mobility shift, FLPeptide30). It counts as biochemical. The following applies: ATP 100 μM, AXL 1 nM. How it is done:
The effect of the disclosed compounds as protein kinase inhibitors can be evaluated by the following experiments. The AXL (h) kinase activity of the compounds of the invention is tested by the following methods:
Reagents used in the experiment were AXL (Carna Bioscience, Cat No.: 08-107) and FLPeptide30 (PerkinElmer, Cat No.: 760430). The instruments involved were thermotank (Thermo Scientific), oscillator (QILINBEIER), EZ Reader (PerkinElmer, Cat No.: 122919), Non-contact stage pipetting system (Labcyte Inc., Cat No.: Echo 550), and non-contact nanoliter pipetting system (TECAN, Cat No.: EVO200).
Compound dilution: 1) Dissolve the compound in DMSO to the appropriate concentration; 2) Using TECAN EVO200 to dilute 10 concentrations in 384 microplates by three times gradient, the highest concentration is 1 mM; Echo550 was used to transfer 20 nL solution from the dilution plate to the test plate.
2) Add 15 μL solution 1 to each well of the test plate and incubate at room temperature for 30 minutes.
4) Add 5 μL solution 2 to start the reaction, and the final volume of each well is 20 μL.
5) Incubated at 25° C. for 90 min, and then added 75 μL stop solution (containing 0.5 M EDTA) to terminate the reaction.
6) The sample of each well was analyzed using EZ reader.
1) Based on the measured conversion rate (CR), the Remaining Activity (%) of the kinase was calculated according to the following function:
2) XLFit (Equation 201) software was used to fit IC50.
The above methods can be used to obtain the inhibitory IC50 and/or inhibitory constant Ki.

A further experiment relates to Ba/F3 AXL cells. The experiment in a line: Cell activity test: growth inhibition of Ba/F3 AXL cell line (CTG, 72 h). It counts as cell-based. Particulars: Mus musculus, BaF3. The procedure: This experiment was conducted by detecting the inhibitory effect of compounds on the growth of Ba/F3 AXL cell line and Ba/F3 parental cell line. Cells in logarithmic growth stage were harvested and counted by platelet counter. Trypan blue rejection method was used to detect cell viability to ensure that the cell viability was above 90%. Adjust cell concentration; 90 μL cell suspension was added to 96-well plates, respectively; Cells in 96-well plates were cultured overnight at 37° C., 5% CO2 and 95% humidity. A 10-fold drug solution was prepared, with the highest concentration of 10 μM, and a total of 9 concentrations were diluted at 3.16 times the ratio. 10 μL drug solution was added to each well of the 96-well plate inoculated with cells, and three wells were set for each drug concentration; 96-well plates were incubated at 37° C., 5% CO2 and 95% humidity for 72 h, and CTG analysis was performed. Thaw the CTG reagent and balance the cell plates to room temperature for 30 minutes. Add the same volume of CTG solution to each well and vibrate on a fixed-rail shaker for 5 minutes to crack the cells. Place the cell plates at room temperature for 20 minutes to stabilize the cold light signal and read the cold light value. The GraphPad Prism 5.0 software was used to analyze the data, and the nonlinear S-curve regression was used to fit the data to obtain the dose-effect curve, and the IC50 value was calculated accordingly. Cell survival rate (%)=(Lum drug to be tested −Lum culture medium control)/(Lum cell control−Lum culture medium control)×100%.

Sequence of AXL (h) kinase (P30530 473-894): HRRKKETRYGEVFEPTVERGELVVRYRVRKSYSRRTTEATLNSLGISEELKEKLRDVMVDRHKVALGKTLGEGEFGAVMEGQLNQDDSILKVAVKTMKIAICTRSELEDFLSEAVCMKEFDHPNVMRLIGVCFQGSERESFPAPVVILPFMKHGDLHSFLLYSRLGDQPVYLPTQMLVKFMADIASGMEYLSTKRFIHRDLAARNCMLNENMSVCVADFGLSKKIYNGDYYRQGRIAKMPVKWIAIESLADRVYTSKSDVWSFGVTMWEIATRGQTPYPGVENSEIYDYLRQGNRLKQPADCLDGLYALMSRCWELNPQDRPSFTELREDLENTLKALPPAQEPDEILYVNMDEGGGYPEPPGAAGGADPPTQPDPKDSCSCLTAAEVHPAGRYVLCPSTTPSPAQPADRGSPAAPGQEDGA

Regarding `CC(C)(F)C(=O)N1CCC(c2cc(-c3ccc(NC(=O)c4c5n(n(-c6ccccn6)c4=O)CCOC5)cc3F)c3c(N)ncnn23)CC1` [example 27, N-(4-(4-amino-7-(1-(2-fluoro-2-methylpropanoyl)piperidin-4-yl)pyrrolo[2,1-f][1,2,4]triazin-5-yl)-3-fluorophenyl)-2-oxo-1-(pyridin-2-yl)-2,4,6,7-tetrahydro-1H-pyrazolo[5,1-c][1,4]oxazine-3-carboxamide], the IC50 was in the range of 50 to 100 nM on AXL (h) kinase and 5 to 50 nM in the experiment with Ba/F3 AXL cells. Turning to `CC(C)(F)C(=O)N1CCC(c2cc(-c3ccc(NC(=O)c4c5n(n(-c6ccccn6)c4=O)CCOC5)cc3)c3c(N)ncnn23)CC1` [example 12, N-(4-(4-amino-7-(1-(2-fluoro-2-methylpropanoyl)piperidin-4-yl)pyrrolo[2,1-f][1,2,4]triazin-5-yl)phenyl)-2-oxo-1-(pyridin-2-yl)-2,4,6,7-tetrahydro-1H-pyrazolo[5,1-c][1,4]oxazine-3-carboxamide], the IC50 in the experiment with Ba/F3 AXL cells fell in the range of 5 to 50 nM. Molecule `Nc1ncnn2c(C3CCC(O)CC3)cc(-c3ccc(NC(=O)c4c5n(n(-c6ccccc6)c4=O)CCOC5)nc3)c12` (centres unmarked) [example 23] displayed an IC50 in the experiment on Ba/F3 AXL cells of less than 5 nM. The same measure, in the same setting: under `Nc1ncnn2c(C3CCN(C(=O)C4CC4)CC3)cc(-c3ccc(NC(=O)c4c5n(n(-c6ccccn6)c4=O)CCOC5)cc3F)c12` [example 28, N-(4-(4-amino-7-(1-(cyclopropanecarbonyl)piperidin-4-yl)pyrrolo[2,1-f][1,2,4]triazin-5-yl)-3-fluorophenyl)-2-oxo-1-(pyridin-2-yl)-2,4,6,7-tetrahydro-1H-pyrazolo[5,1-c][1,4]oxazine-3-carboxamide] stands 5 to 50 nM. In the case of `Nc1ncnn2c(C3CCN(C(=O)C4CC4)CC3)cc(-c3ccc(NC(=O)c4c5n(n(-c6ccncc6)c4=O)CCCC5)cc3)c12` [example 44], the half-inhibitory concentration (IC50) at AXL (h) kinase was in the range of 50 to 100 nM. For `CC(C)(O)C(=O)N1CCC(c2cc(-c3ccc(NC(=O)c4c5n(n(-c6ccccn6)c4=O)CCOC5)cc3F)c3c(N)ncnn23)CC1` [example 14, N-(4-(4-amino-7-(1-(2-hydroxy-2-methylpropanoyl)piperidin-4-yl)pyrrolo[2,1-f][1,2,4]triazin-5-yl)-3-fluorophenyl)-2-oxo-1-(pyridin-2-yl)-2,4,6,7-tetrahydro-1H-pyrazolo[5,1-c][1,4]oxazine-3-carboxamide], the IC50 was in the range of 50 to 100 nM at AXL (h) kinase and 5 to 50 nM with Ba/F3 AXL cells. With `CC(C)(F)C(=O)N1CCC(c2cc(-c3ccc(NC(=O)c4c5n(n(-c6cccnn6)c4=O)CCCC5)cc3)c3c(N)ncnn23)CC1` [example 52], at AXL (h) kinase, the IC50 is 5 to 50 nM. For the molecule `Cn1cc(-n2c(=O)c(C(=O)Nc3ccc(-c4cc(C5CCN(C(=O)C6CC6)CC5)n5ncnc(N)c45)cc3)c3n2CCCC3)cn1` [example 47], the IC50 is 5 to 50 nM at AXL (h) kinase and less than 5 nM in the experiment on Ba/F3 AXL cells. Turning to `CC(C)C(=O)N1CCC(c2cc(-c3ccc(NC(=O)c4c5n(n(-c6ccccn6)c4=O)CCCC5)cc3F)c3c(N)ncnn23)CC1` [example 17, N-(4-(4-amino-7-(1-isobutyrylpiperidin-4-yl)pyrrolo[2,1-f][1,2,4]triazin-5-yl)-3-fluorophenyl)-2-oxo-1-(pyridin-2-yl)-1,2,4,5,6,7-hexahydropyrazolo[1,5-a]pyridine-3-carboxamide], the IC50 with Ba/F3 AXL cells is 5 to 50 nM. As to `CC(C)C(=O)N1CCC(c2cc(-c3ccc(NC(=O)c4c5n(n(-c6ccccc6)c4=O)CCC5)cc3)c3c(N)ncnn23)CC1` [example 6, N-(4-(4-amino-7-(1-isobutyrylpiperidin-4-yl)pyrrolo[2,1-f][1,2,4]triazin-5-yl)phenyl)-2-oxo-1-phenyl-2,4,5,6-tetrahydro-1H-pyrrolo[1,2-b]pyrazole-3-carboxamide], in the experiment with Ba/F3 AXL cells, the IC50 is less than 5 nM. Take `Nc1ncnn2c(C3CCN(C(=O)C4CC4)CC3)cc(-c3ccc(NC(=O)c4c5n(n(-c6cccnc6)c4=O)CCCC5)cc3)c12` [example 49]: the IC50 on AXL (h) kinase and with Ba/F3 AXL cells was 5 to 50 nM each time. Turning to `CC(C)C(=O)N1CCC(c2cc(-c3ccc(NC(=O)c4c5n(n(-c6ccccn6)c4=O)CCCC5)cc3)c3c(N)ncnn23)CC1` [example 18, N-(4-(4-amino-7-(1-isobutyrylpiperidin-4-yl)pyrrolo[2,1-f][1,2,4]triazin-5-yl)phenyl)-2-oxo-1-(pyridin-2-yl)-1,2,4,5,6,7-hexahydropyrazolo[1,5-a]pyridine-3-carboxamide], the IC50 at AXL (h) kinase and with Ba/F3 AXL cells was 5 to 50 nM each time. `Nc1ncnn2c(C3CCNCC3)cc(-c3ccc(NC(=O)c4c5n(n(-c6ccccc6)c4=O)CCOC5)cc3)c12` [example 2, N-(4-(4-amino-7-(piperidin-4-yl)pyrrolo[2,1-f][1,2,4]triazin-5-yl)phenyl)-2-oxo-1-phenyl-2,4,6,7-tetrahydro-1H-pyrazolo[5,1-c][1,4]oxazine-3-carboxamide]: the IC50 is more than 100 nM on AXL (h) kinase and 50 to 100 nM in the experiment on Ba/F3 AXL cells.

As for `CC(C)(O)C(=O)N1CCC(c2cc(-c3ccc(NC(=O)c4c5n(n(-c6ccccn6)c4=O)CCOC5)cc3)c3c(N)ncnn23)CC1` [example 15, N-(4-(4-amino-7-(1-(2-hydroxy-2-methylpropanoyl)piperidin-4-yl)pyrrolo[2,1-f][1,2,4]triazin-5-yl)phenyl)-2-oxo-1-(pyridin-2-yl)-2,4,6,7-tetrahydro-1H-pyrazolo[5,1-c][1,4]oxazine-3-carboxamide], the IC50 at AXL (h) kinase and in the experiment on Ba/F3 AXL cells was 5 to 50 nM in each case. In the case of `[2H][C@]1(O)CC[C@H](c2cc(-c3ccc(NC(=O)c4c5n(n(-c6ccccc6)c4=O)CCOC5)cc3F)c3c(N)ncnn32)CC1` [example 33, N-(4-(4-amino-7-((1r,4r)-4-hydroxycyclohexyl-4-d)pyrrolo[2,1-f][1,2,4]triazin-5-yl)-3-fluorophenyl)-2-oxo-1-phenyl-2,4,6,7-tetrahydro-1H-pyrazolo[5,1-c][1,4]oxazine-3-carboxamide], the half-inhibitory concentration (IC50) on AXL (h) kinase is 5 to 50 nM. Same read-out and setting: the figure for `Nc1ncnn2c(C3CCN(C(=O)C4CCC4)CC3)cc(-c3ccc(NC(=O)c4c5n(n(-c6ccccn6)c4=O)CCC5)cc3)c12` [example 40] is more than 100 nM.

For `CC(C)(C)C(=O)N1CCC(c2cc(-c3ccc(NC(=O)c4c5n(n(-c6ccccn6)c4=O)CCOC5)cc3F)c3c(N)ncnn23)CC1` [example 37], the figures for the IC50 on AXL (h) kinase and in the experiment with Ba/F3 AXL cells were 5 to 50 nM and less than 5 nM, respectively. `Nc1ncnn2c1c(-c1ccc(NC(=O)c3c4n(n(-c5ccccc5)c3=O)CCCC4)cc1F)cc2[C@H]1CC[C@H](O)CC1` [example 24, N-(4-(4-amino-7-((1r,4r)-4-hydroxycyclohexyl)pyrrolo[2,1-f][1,2,4]triazin-5-yl)-3-fluorophenyl)-2-oxo-1-phenyl-1,2,4,5,6,7-hexahydropyrazolo[1,5-a]pyridine-3-carboxamide] displayed an IC50 in the experiment on Ba/F3 AXL cells of less than 5 nM.

Turning to `Nc1ncnn2c(C3CCC(O)CC3)cc(-c3ccc(NC(=O)c4c5n(n(-c6ccccn6)c4=O)CCOC5)cc3)c12` (centres unmarked) [example 32, N-(4-(4-amino-7-((1r,4r)-4-hydroxycyclohexyl)pyrrolo[2,1-f][1,2,4]triazin-5-yl)phenyl)-2-oxo-1-(pyridin-2-yl)-2,4,6,7-tetrahydro-1H-pyrazolo[5,1-c][1,4]oxazine-3-carboxamide], the IC50 in the experiment on Ba/F3 AXL cells was in the range of 5 to 50 nM. `Nc1ncnn2c1c(-c1ccc(NC(=O)c3c4n(n(-c5ccccn5)c3=O)CCOC4)cc1)cc2[C@H]1CC[C@H](O)CC1` [example 32, N-(4-(4-amino-7-((1r,4r)-4-hydroxycyclohexyl)pyrrolo[2,1-f][1,2,4]triazin-5-yl)phenyl)-2-oxo-1-(pyridin-2-yl)-2,4,6,7-tetrahydro-1H-pyrazolo[5,1-c][1,4]oxazine-3-carboxamide]: the IC50 on AXL (h) kinase is less than 5 nM. In the experiment on Ba/F3 AXL cells, `CC(C)C(=O)N1CCC(c2cc(-c3ccc(NC(=O)c4c5n(n(-c6ccccc6)c4=O)CCOC5)nc3)c3c(N)ncnn23)CC1` [example 35, N-(5-(4-amino-7-(1-isobutyrylpiperidin-4-yl)pyrrolo[2,1-f][1,2,4]triazin-5-yl)pyridin-2-yl)-2-oxo-1-phenyl-2,4,6,7-tetrahydro-1H-pyrazolo[5,1-c][1,4]oxazine-3-carboxamide] returned an IC50 of less than 5 nM.
